Structures are written as SMILES.

For data set [1], the target named is T1, recombinant human Muscarinic M1 receptor (Homo sapiens, UniProt P11229).
T1 sequence (P11229 1-460): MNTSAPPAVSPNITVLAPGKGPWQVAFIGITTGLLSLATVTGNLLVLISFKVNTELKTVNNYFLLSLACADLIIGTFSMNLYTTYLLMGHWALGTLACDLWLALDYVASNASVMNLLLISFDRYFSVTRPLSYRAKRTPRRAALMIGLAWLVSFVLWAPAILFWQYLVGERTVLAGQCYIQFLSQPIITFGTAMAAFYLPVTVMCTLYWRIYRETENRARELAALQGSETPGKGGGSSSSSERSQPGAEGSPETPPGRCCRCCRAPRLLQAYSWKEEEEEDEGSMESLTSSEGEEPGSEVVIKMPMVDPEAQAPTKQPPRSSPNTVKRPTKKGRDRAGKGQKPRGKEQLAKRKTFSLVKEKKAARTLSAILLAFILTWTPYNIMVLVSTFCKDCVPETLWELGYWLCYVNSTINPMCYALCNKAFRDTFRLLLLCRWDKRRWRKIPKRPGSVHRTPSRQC
The experiment in a line: Allosteric potency EC50 for muscarinic M1 receptor, CHO pCRE-Luc reporter cell-based assay with EC20 of acetylcholine. The settings on record: CHO cells, luciferase activity, in presence of EC20 of acetylcholine, 4 hours. The protocol: Determination of Allosteric Potency EC50 Values for Muscarinic M1 Receptor
A stable CHO cell line expressing recombinant human Muscarinic M1 receptor and pCRE-Luc reporter system was used for cell-based assay. The assay offers a non-radioactive based approach to determine binding of a compound to GPCRs. In this specific assay, the level of intracellular cyclic AMP which is modulated by activation or inhibition of the receptor is measured. The recombinant cells harbor luciferase reporter gene under the control of cyclic AMP response element.
The above cells were grown in 96 well clear bottom white plates in Hams F12 medium containing 10% fetal bovine serum (FBS). Prior to the addition of compounds or standard agonist, cells were serum starved overnight. Increasing concentrations of test compounds were added along with EC20 of acetylcholine in OptiMEM medium to the cells. The incubation was continued at 37° C. in CO2 incubator for 4 hours. Medium was removed and cells were washed with phosphate buffered saline. The cells were lysed and luciferase activity was measured in a Luminometer. Luminescence units were plotted against the compound concentrations using Graphpad software.

The nature of data set [2]: Rodent pharmacokinetic study. It is filed as in vivo, Male Wistar rats. The settings on record: male, Wistar, plasma, rat; for bioavailability: oral 3 mg/kg vs intravenous 1 mg/kg, read-out: F (%) Bioavailability. The protocol: Rodent Pharmacokinetic Study
Male Wistar rats (260±50 grams) were used as experimental animals. Animals were housed individually in polypropylene cage. Two days prior to study, male Wistar rats were anesthetized with isoflurane for surgical placement of jugular vein catheter. Rats were randomly divided for oral (3 mg/kg) and intravenous (1 mg/kg) dosing (n=3/group) and fasted overnight before oral dosing (p.o.). However, rats allocated to intravenous dosing food and water was provided ad libitum.
At pre-determined point, blood was collected through jugular vein and replenished with an equivalent volume of normal saline. Collected blood was transferred into a labeled eppendorf tube containing 10 μL of heparin as an anticoagulant. Typically blood samples were collected at following time points: 0.08, 0.25, 0.5, 1, 2, 4, 6, 8, and 24 h post dose. Blood was centrifuged at 4000 rpm for 10 minutes. Plasma was separated and stored frozen at −80° C. until analysis. The concentrations of the test compounds were quantified in plasma by qualified LC-MS/MS method using suitable extraction technique. The test compounds were quantified in the calibration range around 1-1000 ng/mL in plasma. Study samples were analyzed using calibration samples in the batch and quality control samples spread across the batch.
Pharmacokinetic parameters Cmax, AUCt, T1/2, Clearance and Bioavailability (F) were calculated by non-compartmental model using standard non-compartmental model by using Phoenix WinNonlin 6.0.4 version Software package.

The nature of data set [3]: Rodent brain penetration study. It is filed as in vivo, Male Wistar rats. Particulars: male, Wistar, brain and plasma, po; rat, 3 mg/kg p.o., brain-plasma ratio; read-out: Single dose Rat Brain Penetration (Cb/Cp) at 3 mg/kg, p.o. The protocol: Rodent Brain Penetration Study
Male Wistar rats (260±40 grams) were used as experimental animals. Three animals were housed in each cage. Animals were given water and food ad libitum throughout the experiment and maintained on a 12 h light/dark cycle.
Brain penetration was determined in discrete manner in rats. One day prior to dosing day, male Wistar rats were acclimatized and randomly grouped according to their weight. At each time point (0.50, 1 and 2 h) n=3 animals were used.
The test compounds were suitably preformulated and administered orally at (free base equivalent) 3 mg/kg. Blood samples were removed via cardiac puncture by using isoflurane anesthesia. The animals were sacrificed to collect brain tissue. Plasma was separated and brain samples were homogenized and stored frozen at −20° C. until analysis. The concentrations of the test compounds in plasma and brain were determined using LC-MS/MS method.
The test compounds were quantified in plasma and brain homogenate by qualified LC-MS/MS method using suitable extraction technique. The test compounds were quantified in the calibration range of 1-500 ng/mL in plasma and brain homogenate. Study samples were analyzed using calibration samples in the batch and quality control samples spread across the batch. Extent of brain-plasma ratio (Cb/Cp) was calculated.

Data set [4] has as its system Male Swiss mice. The experiment in a line: Effect on colonic transit. The format is in vivo. The settings on record: doses of 1 and 3 mg/kg, p.o., carmine dye, 3 hours after dye. The protocol: Effect on Colonic Transit
Male Swiss mice of body weight ˜20-30 g were fasted for 16 hours with free access to water prior to the experiment. Mice were administrated example 1 or vehicle, 30 min after administration of 0.5 ml of carmine dye solution. Mice were sacrificed 3 hours after dye administration and the distance traveled by the dye from proximal colon was measured. Colonic transit was expressed as % colonic transit=100×(length of colon in which carmine moved/total length of colon).

Data set [5] concerns Male Wistar rats. The experiment in a line: Object recognition task model. Particulars: rat, 3 mg/kg, p.o. It is filed as in vivo. The protocol:
Object Recognition Task Model
Male Wistar rats (8-10 weeks old) were used as experimental animals. Four animals were housed in each cage. Animals were kept on 20% food deprivation from a day prior to experimentation. Water was provided ad libitum throughout the experiment. Animals were maintained on a 12 h light/dark cycle in temperature and humidity controlled room. The experiment was carried out in a circular or square arena made up of acrylic. Rats were habituated to individual arenas for up to 1 hour in the absence of any objects on day 1.
One group of 12 rats received vehicle and another set of animals received test compounds, before familiar (T1) and choice (T2) trials. During the familiarization phase, (T1), the rats were placed individually in the arena for 3 minutes, in which two identical objects (a1 and a2) were positioned 10 cm from the wall. 24 h after T1, trial for long-term memory test was performed. The same rats were placed in the same arena as they were placed in T1 trial. During the choice phase (T2) rats were allowed to explore the arena for 3 minutes in presence of a copy of familiar object (a3) and one novel object (b). During the T1 and T2 trial, explorations of each object (defined as sniffing, licking, chewing or having moving vibrissae whilst directing the nose towards the object at a distance of less than 1 cm) were recorded using stopwatch. • T1 is the total time spent exploring the familiar objects (a1+a2). • T2 is the total time spent exploring the familiar object and novel object (a3+b).
The object recognition test was performed as described in Behav. Brain Res., 1988, 31, 47-59.

In data set [6] the test system is Male Wistar rats. The experiment in a line: Object recognition task model (combination study with donepezil). It is filed as in vivo. Particulars: rat, combination of sub efficacious doses with donepezil (FIG. 1). The protocol: Object Recognition Task Model (Combination Study)
The cognition enhancing properties of compounds of this invention were estimated by using this model.
Male Wistar rats (8-10 weeks old) were used as experimental animals. Four animals were housed in each cage. Animals were kept on 20% food deprivation from a day prior to experimentation. Water was provided ad libitum throughout the experiment. Animals were maintained on a 12 h light/dark cycle in temperature and humidity controlled room. The experiment was carried out in an open field made up of acrylic. Rats were habituated to individual arenas (open field) for 20 minutes in the absence of any objects on day 1. […]
The same rats were placed in the same arena as they were placed in T1 trial. […] During the T1 and T2 trial, explorations of each object (defined as sniffing, licking, chewing or having moving vibrissae whilst directing the nose towards the object at a distance of less than 1 cm) were recorded using stopwatch. • T1 is the total time spent exploring the familiar objects (a1+a2). • T2 is the total time spent exploring the familiar object and novel object (a3+b). • Discriminative index=Time spent with novel object/(time spent with novel and familiar object). […]

In the case of `Cn1cc(-c2ccc(Cc3cc(C(=O)N[C@H]4CCOC[C@@H]4O)nn4cccc34)cc2)cn1` (stereo in doubt) [Example 38, N-[3-Hydroxy-tetrahydropyran-4-yl] 4-[4-(1-methyl-1H-pyrazol-4-yl)-benzyl]-pyrrolo[1,2-b]pyridazine-2-carboxamide], in data set [1], the half-maximal effective concentration (EC50) was determined as 692 nM. In data set [2] (intravenous (bolus), 1 mg/kg), this compound had an AUC(0-t) of 7240 ± 890 ng·h/mL, a clearance of 2.31 ± 0.29 mL/min/kg and a half-life of 3.42 ± 0.29 h. In data set [2], the bioavailability worked out at 60 ± 4%. In addition, in data set [2] (oral (gavage), 3 mg/kg), the exposure AUC(0-t) is 13000 ± 954 ng·h/mL, the Cmax stood at 1860 ± 185 ng/mL and the half-life was 3.74 ± 0.15 h. In addition, the Kp in data set [3] amounted to 0.15 ± 0.02. For the same compound, the Colonic transit result in data set [4] is “increased the colonic transit”.
Take `O=C(N[C@H]1CCCC[C@@H]1O)c1cc(Cc2ccccc2)c2cccn2n1` [Example 4, N-[(1S,2S)-2-Hydroxycyclohexyl]-4-benzyl-pyrrolo[1,2-b]pyridazine-2-carboxamide]: the 50% effective concentration (EC50) in data set [1] was 1850 nM. In data set [2] (intravenous (bolus), 1 mg/kg), this compound gave an AUC(0-t) of 677 ± 194 ng·h/mL, a clearance of 24 ± 6 mL/min/kg and a half-life of 0.7 ± 0.1 h. In addition, the bioavailability in data set [2] came out at 13 ± 1%. Also, in data set [2] (oral (gavage), 3 mg/kg), the AUC(0-t) was 259 ± 22 ng·h/mL, the concentration peaked (Cmax) at 113 ± 11 ng/mL and the half-life is 2.5 ± 0.5 h. In addition, the Kp in data set [3] is 1.42 ± 0.1. The Inference result in data set [5] is listed as “Active”. Moreover, in data set [5] (choice trial 24 h after T1), the “Exploration time mean ± S.E.M, Familiar object” value came to 16.24 ± 1.09 s and the “Exploration time mean ± S.E.M, Novel object” value amounted to 25.9 ± 2.54 s. Moreover, the “Procognitive effect in object recognition task” value in data set [6] is reported as “Procognitive effects were observed”.

In general, EC50 refers to the concentration that produces a half-maximal response. One may read the AUC(0-t) as the area under the concentration-time curve up to a stated or last time point. Low readings indicate less exposure, high ones more exposure. The term clearance denotes the rate of elimination divided by the concentration. A low value points to a low capacity for elimination. Usually half-life stands for the time in which the quantity being followed falls by half. A high value points to slow loss. For orientation: bioavailability means the share of a dose that reaches the circulation, judged against a reference dose that is usually intravenous. Broadly, the Cmax is the peak of the concentration-time curve.
